The nature of this series: in vivo. The conditions noted are these: male, Göttingen, minipig, iv.

Square brackets hold non-standard residues; d marks the D form. Side chains are listed from the residue outwards. Peptide text beside a SMILES is read from it. * marks the point of attachment. Hexadecanoyl(16-SO3H) = O=C(CCCCCCCCCCCCCCCS(=O)(=O)O)*; Cya = N[C@@H](CS(=O)(=O)O)C(=O)O; Trx = NC[C@H]1CC[C@H](C(=O)O)CC1; AEEA = NCCOCCOCC(=O)O; Aib = CC(C)(N)C(=O)O

What is called half-life is how long it takes for the measured level to halve. A low value points to fast loss.

For the compound `CC[C@H](C)[C@H](NC(=O)[C@H](Cc1ccccc1)NC(=O)[C@H](CCC(=O)O)NC(=O)[C@H](CCCNC(=N)N)NC(=O)[C@H](C)NC(=O)[C@H](C)NC(=O)[C@H](CCC(N)=O)NC(=O)[C@H](CCCCNC(=O)COCCOCCNC(=O)COCCOCCNC(=O)[C@H](CS(=O)(=O)O)NC(=O)[C@H]1CC[C@H](CNC(=O)CCCCCCCCCCCCCCCS(=O)(=O)O)CC1)NC(=O)[C@H](CCC(=O)O)NC(=O)[C@H](CC(C)C)NC(=O)[C@H](Cc1ccc(O)cc1)NC(=O)[C@H](CCCCNC(=O)COCCOCCNC(=O)COCCOCCNC(=O)[C@H](CS(=O)(=O)O)NC(=O)[C@H]1CC[C@H](CNC(=O)CCCCCCCCCCCCCCCS(=O)(=O)O)CC1)NC(=O)[C@H](CO)NC(=O)[C@@H](NC(=O)[C@H](CC(=O)O)NC(=O)[C@H](CO)NC(=O)[C@@H](NC(=O)[C@H](Cc1ccccc1)NC(=O)[C@@H](NC(=O)CNC(=O)[C@H](CCC(=O)O)NC(=O)C(C)(C)NC(=O)[C@@H](N)Cc1c[nH]cn1)[C@@H](C)O)[C@@H](C)O)C(C)C)C(=O)N[C@@H](CCCCNC(=O)COCCOCCNC(=O)COCCOCCNC(=O)[C@H](CS(=O)(=O)O)NC(=O)[C@H]1CC[C@H](CNC(=O)CCCCCCCCCCCCCCCS(=O)(=O)O)CC1)C(=O)N[C@@H](Cc1c[nH]c2ccccc12)C(=O)N[C@@H](CC(C)C)C(=O)N[C@H](C(=O)N[C@@H](CCCNC(=N)N)C(=O)NCC(=O)N[C@@H](CCCNC(=N)N)C(=O)NCC(=O)O)C(C)C` [Example 4] (H-H[Aib]EGTFTSDVSK([AEEA-AEEA-Cya-Trx-Hexadecanoyl(16-SO3H)])YLEK([AEEA-AEEA-Cya-Trx-Hexadecanoyl(16-SO3H)])QAAREFIK([AEEA-AEEA-Cya-Trx-Hexadecanoyl(16-SO3H)])WLVRGRG-OH; N-terminus and C-terminus assumed), the half-life is 120 h.
The value for `CC[C@H](C)[C@H](NC(=O)[C@H](Cc1ccccc1)NC(=O)[C@H](CCC(=O)O)NC(=O)[C@H](CCCCNC(=O)[C@@H](N)CCCCNC(=O)[C@H](CO)NC(=O)[C@H](CO)NC(=O)[C@H](CO)NC(=O)[C@H](CO)NC(=O)[C@H](CO)NC(=O)CC[C@H](NC(=O)CCCCCCCCCCCCCCCCC(=O)O)C(=O)O)NC(=O)[C@H](C)NC(=O)[C@H](C)NC(=O)[C@H](CCC(N)=O)NC(=O)CNC(=O)[C@H](CCC(=O)O)NC(=O)[C@H](CC(C)C)NC(=O)[C@H](Cc1ccc(O)cc1)NC(=O)[C@H](CCCCNC(=O)[C@@H](N)CCCCNC(=O)[C@H](CO)NC(=O)[C@H](CO)NC(=O)[C@H](CO)NC(=O)[C@H](CO)NC(=O)[C@H](CO)NC(=O)CC[C@H](NC(=O)CCCCCCCCCCCCCCCCC(=O)O)C(=O)O)NC(=O)[C@H](CO)NC(=O)[C@@H](NC(=O)[C@H](CC(=O)O)NC(=O)[C@H](CO)NC(=O)[C@@H](NC(=O)[C@H](Cc1ccccc1)NC(=O)[C@@H](NC(=O)CNC(=O)[C@H](CCC(=O)O)NC(=O)C(C)(C)NC(=O)[C@@H](N)Cc1c[nH]cn1)[C@@H](C)O)[C@@H](C)O)C(C)C)C(=O)N[C@@H](C)C(=O)N[C@@H](Cc1c[nH]c2ccccc12)C(=O)N[C@@H](CC(C)C)C(=O)N[C@H](C(=O)N[C@@H](CCCNC(=N)N)C(=O)NCC(=O)N[C@@H](CCCNC(=N)N)C(=O)N[C@@H](CCCCNC(=O)[C@@H](N)CCCCNC(=O)[C@H](CO)NC(=O)[C@H](CO)NC(=O)[C@H](CO)NC(=O)[C@H](CO)NC(=O)[C@H](CO)NC(=O)CC[C@H](NC(=O)CCCCCCCCCCCCCCCCC(=O)O)C(=O)O)C(=O)O)C(C)C` [Example 3] was 120 h; that for `CC[C@H](C)[C@H](NC(=O)[C@H](Cc1ccccc1)NC(=O)[C@H](CCC(=O)O)NC(=O)[C@H](CCCNC(=N)N)NC(=O)[C@H](C)NC(=O)[C@H](C)NC(=O)[C@H](CCC(N)=O)NC(=O)[C@H](CCCCNC(=O)COCCOCCNC(=O)COCCOCCNC(=O)[C@H](CS(=O)(=O)O)NC(=O)CCCCCCCCCCCCCCCS(=O)(=O)O)NC(=O)[C@H](CCC(=O)O)NC(=O)[C@H](CC(C)C)NC(=O)[C@H](Cc1ccc(O)cc1)NC(=O)[C@H](CCCCNC(=O)COCCOCCNC(=O)COCCOCCNC(=O)[C@H](CS(=O)(=O)O)NC(=O)CCCCCCCCCCCCCCCS(=O)(=O)O)NC(=O)[C@H](CO)NC(=O)[C@@H](NC(=O)[C@H](CC(=O)O)NC(=O)[C@H](CO)NC(=O)[C@@H](NC(=O)[C@H](Cc1ccccc1)NC(=O)[C@@H](NC(=O)CNC(=O)[C@H](CCC(=O)O)NC(=O)C(C)(C)NC(=O)[C@@H](N)Cc1c[nH]cn1)[C@@H](C)O)[C@@H](C)O)C(C)C)C(=O)N[C@@H](CCCCNC(=O)COCCOCCNC(=O)COCCOCCNC(=O)[C@H](CS(=O)(=O)O)NC(=O)CCCCCCCCCCCCCCCS(=O)(=O)O)C(=O)N[C@@H](Cc1c[nH]c2ccccc12)C(=O)N[C@@H](CC(C)C)C(=O)N[C@H](C(=O)N[C@@H](CCCNC(=N)N)C(=O)NCC(=O)N[C@@H](CCCNC(=N)N)C(=O)NCC(=O)O)C(C)C` [Example 2] (H-H[Aib]EGTFTSDVSK([AEEA-AEEA-Cya-Hexadecanoyl(16-SO3H)])YLEK([AEEA-AEEA-Cya-Hexadecanoyl(16-SO3H)])QAAREFIK([AEEA-AEEA-Cya-Hexadecanoyl(16-SO3H)])WLVRGRG-OH; N-terminus and C-terminus assumed) was 140 h.
The value for `CC[C@H](C)[C@H](NC(=O)[C@H](Cc1ccccc1)NC(=O)[C@H](CCC(=O)O)NC(=O)[C@H](CCCCNC(=O)[C@H](CO)NC(=O)[C@H](CO)NC(=O)[C@H](CO)NC(=O)[C@H](CO)NC(=O)[C@H](CO)NC(=O)[C@H](CO)NC(=O)CC[C@H](NC(=O)CCCCCCCCCCCCCCCCC(=O)O)C(=O)O)NC(=O)[C@H](C)NC(=O)[C@H](C)NC(=O)[C@H](CCC(N)=O)NC(=O)CNC(=O)[C@H](CCC(=O)O)NC(=O)[C@H](CC(C)C)NC(=O)[C@H](Cc1ccc(O)cc1)NC(=O)[C@H](CCCCNC(=O)[C@H](CO)NC(=O)[C@H](CO)NC(=O)[C@H](CO)NC(=O)[C@H](CO)NC(=O)[C@H](CO)NC(=O)[C@H](CO)NC(=O)CC[C@H](NC(=O)CCCCCCCCCCCCCCCCC(=O)O)C(=O)O)NC(=O)[C@H](CO)NC(=O)[C@@H](NC(=O)[C@H](CC(=O)O)NC(=O)[C@H](CO)NC(=O)[C@@H](NC(=O)[C@H](Cc1ccccc1)NC(=O)[C@@H](NC(=O)CNC(=O)[C@H](CCC(=O)O)NC(=O)C(C)(C)NC(=O)[C@@H](N)Cc1c[nH]cn1)[C@@H](C)O)[C@@H](C)O)C(C)C)C(=O)N[C@@H](C)C(=O)N[C@@H](Cc1c[nH]c2ccccc12)C(=O)N[C@@H](CC(C)C)C(=O)N[C@H](C(=O)N[C@@H](CCCNC(=N)N)C(=O)NCC(=O)N[C@@H](CCCNC(=N)N)C(=O)N[C@@H](CCCCNC(=O)[C@H](CO)NC(=O)[C@H](CO)NC(=O)[C@H](CO)NC(=O)[C@H](CO)NC(=O)[C@H](CO)NC(=O)[C@H](CO)NC(=O)CC[C@H](NC(=O)CCCCCCCCCCCCCCCCC(=O)O)C(=O)O)C(=O)O)C(C)C` [Example 8] was 138 h.

The record behind these values is patent US10266577B2, “GLP-1 derivatives, and uses thereof” (Novo Nordisk A/S, priority 2013, dated 2019).
